In US4526889A, “Epimeric azahomoerythromycin A derivative, intermediates and method of use” (Pfizer Inc., priority 1984, dated 1985):
In brackets after ≈: the same amount, converted by molar mass. Where two headings read alike, the source gives them in different places.

Columns and labels:
[1] = microbiological (bioassay) determination of serum levels in rats
Method: Additionally, compound (IV) is tested in vivo by the well-known mouse protection test, or by a microbiological (bioassay) determination of serum levels in a variety of mammals (e.g., mouse, rat, dog).

[2] = tested on: Serr. mar. 017; assay: MIC in brain heart infusion (BHI) broth; assay type: cell-based
From the text: (§1) Generally twelve 2 fold dilutions of the test compound are employed, with initial concentration of the test drug being in the range of 50 to 200 mcg./ml. The susceptibility (MIC) of the test organism is accepted as the lowest concentration of compound capable of producing complete inhibition of growth as judged by the naked eye. A comparison of the activity of 4"-epi-9-deoxo-9a-methyl-9a-aza-9a-homoerythromycin A (IV) with that of an erythromycin A control is shown in replicate in the Table I.

[3] = tested on: Kleb. pn. 009; assay: MIC in brain heart infusion (BHI) broth; assay type: cell-based
From the text: as §1

[4] = tested on: Neiss. sic. 000; assay: MIC in brain heart infusion (BHI) broth; assay type: cell-based
From the text: as §1

[5] = tested on: E. Coli 266; assay: MIC in brain heart infusion (BHI) broth; assay type: cell-based; settings: Escherichia coli
From the text: as §1

[6] = tested on: Staph. aur. 400; assay: MIC in brain heart infusion (BHI) broth; assay type: cell-based
From the text: as §1

[7] = tested on: Kleb. oxy. 024; assay: MIC in brain heart infusion (BHI) broth; assay type: cell-based
From the text: as §1

[8] = tested on: E. Coli 129; assay: MIC in brain heart infusion (BHI) broth; assay type: cell-based; settings: Escherichia coli
From the text: as §1

[9] = tested on: Strep. pyog. 203; assay: MIC in brain heart infusion (BHI) broth; assay type: cell-based
From the text: as §1

[10] = tested on: Staph. aur. 052; assay: MIC in brain heart infusion (BHI) broth; assay type: cell-based
From the text: as §1

[11] = tested on: Ent. aerog. 040; assay: MIC in brain heart infusion (BHI) broth; assay type: cell-based
From the text: as §1

[12] = tested on: E. Coli 125; assay: MIC in brain heart infusion (BHI) broth; assay type: cell-based; settings: Escherichia coli
From the text: as §1

[13] = tested on: Kleb. pn. 031; assay: MIC in brain heart infusion (BHI) broth; assay type: cell-based
From the text: as §1

[14] = tested on: Past. mult. 001; assay: MIC in brain heart infusion (BHI) broth; assay type: cell-based; settings: BHI broth, read-out: MIC
From the text: as §1

[15] = tested on: E. Coli 470; assay: MIC in brain heart infusion (BHI) broth; assay type: cell-based; settings: Escherichia coli, BHI broth, read-out: MIC
From the text: as §1

[16] = tested on: Ent. cloac. 009; assay: MIC in brain heart infusion (BHI) broth; assay type: cell-based
From the text: as §1

[17] = tested on: Strep. faec. 006; assay: MIC in brain heart infusion (BHI) broth; assay type: cell-based
From the text: as §1

[18] = tested on: Staph. epi 111; assay: MIC in brain heart infusion (BHI) broth; assay type: cell-based
From the text: as §1

[19] = tested on: Staph. aur. 005; assay: MIC in brain heart infusion (BHI) broth; assay type: cell-based
From the text: as §1

[20] = tested on: Strep. pneumo. 012; assay: MIC in brain heart infusion (BHI) broth; assay type: cell-based
From the text: as §1

[21] = tested on: Prov. strua. 013; assay: MIC in brain heart infusion (BHI) broth; assay type: cell-based
From the text: as §1

[22] = oral absorption and half-life in vivo
[23] = tested on: erythromycin A susceptible organisms and Hemophilus influenzae; assay: spectrum of antibacterial activity; assay type: cell-based
From the text: as §1

[24] = tested on: H. influ. 073; assay: MIC in brain heart infusion (BHI) broth; assay type: cell-based, Hemophilus influenzae; settings: Haemophilus influenzae
From the text: as §1

[25] = tested on: H. influ. 012; assay: MIC in brain heart infusion (BHI) broth; assay type: cell-based, Hemophilus influenzae; settings: Haemophilus influenzae
From the text: as §1

[26] = tested on: H. influ. 078; assay: MIC in brain heart infusion (BHI) broth; assay type: cell-based, Hemophilus influenzae; settings: Haemophilus influenzae
From the text: as §1

[27] = tested on: H. influ. 036; assay: MIC in brain heart infusion (BHI) broth; assay type: cell-based, Hemophilus influenzae; settings: Haemophilus influenzae
From the text: as §1

[28] = tested on: H. influ. 051; assay: MIC in brain heart infusion (BHI) broth; assay type: cell-based, Hemophilus influenzae; settings: Haemophilus influenzae
From the text: as §1

[29] = tested on: H. influ. 042; assay: MIC in brain heart infusion (BHI) broth; assay type: cell-based, Hemophilus influenzae; settings: Haemophilus influenzae
From the text: as §1

[30] = tested on: H. influ. 038; assay: MIC in brain heart infusion (BHI) broth; assay type: cell-based, Hemophilus influenzae; settings: Haemophilus influenzae
From the text: as §1

[31] = tested on: H. influ. 081; assay: MIC in brain heart infusion (BHI) broth; assay type: cell-based, Hemophilus influenzae; settings: Haemophilus influenzae
From the text: as §1

[32] = 24 h, Day 1, BHI broth, read-out: MIC
[33] = 48 h, Day 2, BHI broth, read-out: MIC

CC[C@H]1OC(=O)[C@H](C)[C@@H](O[C@H]2C[C@@](C)(OC)[C@H](O)[C@H](C)O2)[C@H](C)[C@@H](O[C@@H]2O[C@H](C)C[C@H](N(C)C)[C@H]2O)[C@](C)(O)C[C@@H](C)CN(C)[C@H](C)[C@@H](O)[C@]1(C)O [Compound (IV), 4"-epi-9-deoxo-9a-methyl-9a-aza-9a-homoerythromycin A]
absorption after oral dosage [1]: exceptionally well absorbed
serum levels ([1]; oral): exceptionally high and long lasting serum levels
MIC ([2]; 24 h, Day 1): 50 µg/mL (≈ 66.8 µM)
MIC ([2]; 48 h, Day 2): 50 µg/mL (≈ 66.8 µM)
MIC ([3]; 24 h, Day 1): 12.5 µg/mL (≈ 16.7 µM)
MIC ([3]; 48 h, Day 2): 12.5 µg/mL (≈ 16.7 µM)
MIC [4, 32]: 0.2 µg/mL (≈ 0.267 µM)
MIC ([4]; 48 h): 0.39 µg/mL (≈ 0.521 µM)
MIC ([5]; 24 h): 3.12 µg/mL (≈ 4.17 µM)
MIC ([5]; 48 h): 6.25 µg/mL (≈ 8.34 µM)
MIC ([6]; 24 h): 3.12 µg/mL (≈ 4.17 µM)
MIC [6, 33]: 12.5 µg/mL (≈ 16.7 µM)
MIC ([7]; 24 h, Day 1): 12.5 µg/mL (≈ 16.7 µM)
MIC ([7]; 48 h, Day 2): 12.5 µg/mL (≈ 16.7 µM)
MIC ([8]; 24 h): 1.56 µg/mL (≈ 2.08 µM)
MIC ([8]; 48 h): 6.25 µg/mL (≈ 8.34 µM)
MIC ([9]; 24 h, Day 1): 0.025 µg/mL (≈ 0.0334 µM)
MIC ([9]; 48 h, Day 2): 0.025 µg/mL (≈ 0.0334 µM)
MIC [10, 32]: 0.2 µg/mL (≈ 0.267 µM)
MIC ([10]; 48 h): 0.39 µg/mL (≈ 0.521 µM)
MIC ([11]; 24 h, Day 1): 12.5 µg/mL (≈ 16.7 µM)
MIC ([11]; 48 h, Day 2): 12.5 µg/mL (≈ 16.7 µM)
MIC ([12]; 24 h): 6.25 µg/mL (≈ 8.34 µM)
MIC ([12]; 48 h): 6.25 µg/mL (≈ 8.34 µM)
MIC ([13]; 24 h, Day 1): 12.5 µg/mL (≈ 16.7 µM)
MIC ([13]; 48 h, Day 2): 12.5 µg/mL (≈ 16.7 µM)
MIC ([14]; 24 h, Day 1): 0.1 µg/mL (≈ 0.134 µM)
MIC ([14]; 48 h, Day 2): 0.1 µg/mL (≈ 0.134 µM)
MIC ([15]; 24 h, Day 1): 0.78 µg/mL (≈ 1.04 µM)
MIC ([15]; 48 h, Day 2): 0.78 µg/mL (≈ 1.04 µM)
MIC ([16]; 24 h, Day 1): 25 µg/mL (≈ 33.4 µM)
MIC ([16]; 48 h, Day 2): 25 µg/mL (≈ 33.4 µM)
MIC ([17]; 24 h): 1.56 µg/mL (≈ 2.08 µM)
MIC [17, 33]: 0.78 µg/mL (≈ 1.04 µM)
MIC ([18]; 24 h, Day 1): 0.1 µg/mL (≈ 0.134 µM)
MIC ([18]; 48 h, Day 2): 0.2 µg/mL (≈ 0.267 µM)
MIC [19, 32]: 0.2 µg/mL (≈ 0.267 µM)
MIC ([19]; 48 h): 0.39 µg/mL (≈ 0.521 µM)
MIC ([20]; 24 h, Day 1): 0.025 µg/mL (≈ 0.0334 µM)
MIC ([20]; 48 h, Day 2): 0.025 µg/mL (≈ 0.0334 µM)
MIC ([21]; 24 h, Day 1): 50 µg/mL (≈ 66.8 µM)
MIC ([21]; 48 h, Day 2): 50 µg/mL (≈ 66.8 µM)
half-life in vivo ([22]; in vivo): extraordinarily long half-life in vivo
oral absorption ([22]; oral): high oral absorption
spectrum of antibacterial activity [23]: relatively broad spectrum of antibacterial activity which includes erythromycin A susceptible organisms and, in addition, fully incorporates the major respiratory pathogen Hemophilus influenzae
MIC ([24]; 24 h): 0.39 µg/mL (≈ 0.521 µM)
MIC [24, 33]: 0.78 µg/mL (≈ 1.04 µM)
MIC ([25]; 24 h, Day 1): 0.39 µg/mL (≈ 0.521 µM)
MIC ([25]; 48 h, Day 2): 0.39 µg/mL (≈ 0.521 µM)
MIC ([26]; 24 h, Day 1): 0.39 µg/mL (≈ 0.521 µM)
MIC ([26]; 48 h, Day 2): 0.39 µg/mL (≈ 0.521 µM)
MIC ([27]; 24 h, Day 1): 0.39 µg/mL (≈ 0.521 µM)
MIC ([27]; 48 h, Day 2): 0.39 µg/mL (≈ 0.521 µM)
MIC ([28]; 24 h): 0.39 µg/mL (≈ 0.521 µM)
MIC [28, 33]: 0.78 µg/mL (≈ 1.04 µM)
MIC ([29]; 24 h, Day 1): 0.39 µg/mL (≈ 0.521 µM)
MIC ([29]; 48 h, Day 2): 0.39 µg/mL (≈ 0.521 µM)
MIC ([30]; 24 h): 0.39 µg/mL (≈ 0.521 µM)
MIC [30, 33]: 0.78 µg/mL (≈ 1.04 µM)
MIC ([31]; 24 h): 0.39 µg/mL (≈ 0.521 µM)
MIC [31, 33]: 0.78 µg/mL (≈ 1.04 µM)
